The target of one assay is T1, MerTK (Homo sapiens, UniProt Q12866).
T1 construct: Seed HUVECs (10K cells/well) in EBM-2 complete media; host or cells: HUVEC
T1 sequence (Q12866 21-999): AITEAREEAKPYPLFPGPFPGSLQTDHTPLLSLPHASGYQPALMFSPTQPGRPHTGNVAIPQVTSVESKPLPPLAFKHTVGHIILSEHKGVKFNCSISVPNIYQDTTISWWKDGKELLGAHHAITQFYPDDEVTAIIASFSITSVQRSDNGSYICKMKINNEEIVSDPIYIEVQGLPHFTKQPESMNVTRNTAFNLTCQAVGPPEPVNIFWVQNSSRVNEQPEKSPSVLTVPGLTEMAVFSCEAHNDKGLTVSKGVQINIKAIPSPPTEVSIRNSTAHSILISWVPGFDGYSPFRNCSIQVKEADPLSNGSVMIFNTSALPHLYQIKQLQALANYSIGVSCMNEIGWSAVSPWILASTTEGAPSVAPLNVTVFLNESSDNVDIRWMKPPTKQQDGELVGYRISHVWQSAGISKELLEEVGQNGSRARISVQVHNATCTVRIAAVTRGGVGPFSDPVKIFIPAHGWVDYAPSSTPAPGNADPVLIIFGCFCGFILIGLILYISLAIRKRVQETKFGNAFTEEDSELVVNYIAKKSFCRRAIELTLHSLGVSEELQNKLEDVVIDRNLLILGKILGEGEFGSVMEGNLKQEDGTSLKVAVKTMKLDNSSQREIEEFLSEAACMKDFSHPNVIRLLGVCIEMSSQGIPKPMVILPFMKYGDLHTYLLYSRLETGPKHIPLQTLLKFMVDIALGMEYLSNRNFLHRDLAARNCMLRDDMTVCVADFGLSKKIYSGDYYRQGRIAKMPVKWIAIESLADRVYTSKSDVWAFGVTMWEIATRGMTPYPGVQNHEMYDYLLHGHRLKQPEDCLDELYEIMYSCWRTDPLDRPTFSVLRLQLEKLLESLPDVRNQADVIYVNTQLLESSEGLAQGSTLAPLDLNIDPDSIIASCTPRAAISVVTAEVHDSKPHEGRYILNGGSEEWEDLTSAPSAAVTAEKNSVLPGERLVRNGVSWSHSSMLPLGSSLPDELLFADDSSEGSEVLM
As to the kind of experiment: Phospho-AKT HTRF, HUVEC, Mer-XL, 8 pt (pAKT HTRF-HUVEC assay, anti-human MerTK-XL stimulation). Type of assay: cell-based. The conditions noted are these: HUVEC cells, pAkt(Ser473) HTRF, anti-human MerTK-XL stimulation 1 ug/mL 10 minutes. The method, then:
(§1) Example 13: PAKT HTRF-HUVEC Assay
(§2) Seed HUVECs (10K cells/well) in EBM-2 complete media (EBM-2 basal medium plus EGM-2 BulletKit supplements) overnight at 37° C., 5% CO2 in Costar 96-well white clear-bottom plates. Remove culture media and starve cells for 3-4 hours in 50 μL/well EBM-2 basal medium. Perform serial dilution of compounds in DMSO from 2.5 mM in 4-fold dilutions, and then dilute 1:125 in EBM-2 basal media. Mix 50 μL/well 2× compounds with 50 μL/well HUVECs in duplicate in Costar 96-well white clear-bottom plates. Incubate plates for 1 hour at 37° C., 5% CO2. Cross-link anti-human MerTK antibody to Biotin-SP-conjugated anti-mouse IgG antibody (1:1) to give final concentrations of 5 μg/mL of anti-human MerTK-XL. Stimulate HUVECs with 25 μL/well 5× anti-human MerTK-XL to give final concentrations of 1 ug/mL for 10 minutes at 37° C., 5% CO2. Completely remove media and lyse HUVECs with 40 uL:WELL per well of Cisbio HTRF 1× lysis buffer. Performed pAkt(Ser473) HTRF assay in ProxiPlate-384 Plus, white 384-shallow well microplate according to the vendor protocol and read plates with a SpectralMax Paradigm plate reader. Enter the HTRF values into Athena (Rigel) for curve fitting, EC50 calculation, and database storage.

Another assay addresses T2, Axl (Homo sapiens, UniProt P30530).
T2 construct: Seed HUVECs (10K cells/well) in EBM-2 complete media; host or cells: HUVEC
T2 sequence (P30530 26-894): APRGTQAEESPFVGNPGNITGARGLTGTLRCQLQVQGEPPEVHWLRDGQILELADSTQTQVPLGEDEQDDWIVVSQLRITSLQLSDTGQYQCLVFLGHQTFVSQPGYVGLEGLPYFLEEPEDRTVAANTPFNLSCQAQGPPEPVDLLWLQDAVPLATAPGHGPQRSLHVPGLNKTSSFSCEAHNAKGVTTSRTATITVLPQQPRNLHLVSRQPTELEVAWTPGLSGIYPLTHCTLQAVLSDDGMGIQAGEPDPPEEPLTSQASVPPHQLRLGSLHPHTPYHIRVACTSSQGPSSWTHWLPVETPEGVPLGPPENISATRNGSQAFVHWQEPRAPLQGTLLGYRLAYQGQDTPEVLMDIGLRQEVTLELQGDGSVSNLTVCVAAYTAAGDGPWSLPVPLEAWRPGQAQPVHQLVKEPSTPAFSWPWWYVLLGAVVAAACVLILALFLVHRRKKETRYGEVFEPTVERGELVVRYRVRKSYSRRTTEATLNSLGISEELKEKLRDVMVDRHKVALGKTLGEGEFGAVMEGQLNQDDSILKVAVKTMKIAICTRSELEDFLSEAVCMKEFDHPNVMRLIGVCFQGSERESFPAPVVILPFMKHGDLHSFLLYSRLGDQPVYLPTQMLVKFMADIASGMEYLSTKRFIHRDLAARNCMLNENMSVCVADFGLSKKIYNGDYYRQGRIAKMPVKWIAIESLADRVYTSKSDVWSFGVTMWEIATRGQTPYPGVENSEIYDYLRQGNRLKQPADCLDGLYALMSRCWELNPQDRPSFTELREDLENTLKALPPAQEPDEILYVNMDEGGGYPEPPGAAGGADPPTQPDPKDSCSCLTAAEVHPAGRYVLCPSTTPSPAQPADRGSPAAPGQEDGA
As to the kind of experiment: Phospho-AKT HTRF, HUVEC, Axl ABX-L, 8 pt. Type of assay: cell-based. Conditions: HUVEC cells, pAkt(Ser473) HTRF, Axl ABX-L stimulation. The method, then: [The source words this procedure for another target and reports this target under the same test.] as §1, §2
Background: Time-resolved FRET reads energy transfer from a long-lived donor to a nearby acceptor.

On to `COc1cc2c(Oc3ccc(NC(=O)c4cc(-c5ccccc5)c5c(n4)C4CCN5CC4)nc3)ccnc2cc1OCCCN1CCOCC1` [Compound 7, N-(5-((6-Methoxy-7-(3-morpholinopropoxy)quinolin-4-yl)oxy)pyridin-2-yl)-8-phenyl-3,4-dihydro-2H-1,4-ethano-1,5-naphthyridine-6-carboxamide, hydrochloric acid], for which the EC50 at MerTK was 10 nM; at Axl, 18.2 nM.

For `COc1cc2c(Oc3ccc(NC(=O)c4csc(N5CCC(O)CC5)n4)nc3)ccnc2cc1OCCCN1CCOCC1` [Compound 45, 2-(4-hydroxypiperidin-1-yl)-N-(5-((6-methoxy-7-(3-morpholinopropoxy)quinolin-4-yl)oxy)pyridin-2-yl)thiazole-4-carboxamide, hydrochloric acid], the figures for the EC50 on MerTK and at Axl were 459 nM and 649 nM, respectively.

On to `COc1cc2ncnc(Oc3ccc(NC(=O)c4nc(-c5ccccc5)c5c(n4)C4CCN5CC4)nc3)c2cc1OC` [Compound 49, N-(5-((6,7-dimethoxyquinazolin-4-yl)oxy)pyridin-2-yl)-4-phenyl-7,8-dihydro-6H-5,8-ethanopyrido[3,2-d]pyrimidine-2-carboxamide], for which the EC50 at MerTK stood at 15.4 nM; on Axl, 26.8 nM.

Regarding `COc1cc2c(Oc3ccc(NC(=O)c4cc(N5CCC(F)(F)CC5)ccn4)nc3)ccnc2cc1OCCCN1CCOCC1` [Compound 21, 4-(4,4-difluoropiperidin-1-yl)-N-(5-((6-methoxy-7-(3-morpholinopropoxy)quinolin-4-yl)oxy)pyridin-2-yl)picolinamide], the EC50 on MerTK came out at 80.6 nM; at Axl, 62.8 nM.

With `COc1cc2c(Oc3ccc(NC(=O)c4ncc(Br)s4)nc3)ccnc2cc1OCCCN1CCOCC1` [Compound 44, 5-bromo-N-(5-((6-methoxy-7-(3-morpholinopropoxy)quinolin-4-yl)oxy)pyridin-2-yl)thiazole-2-carboxamide], the EC50 came out at 79.9 nM at MerTK and 102 nM on Axl.

Regarding `COc1cc2c(Oc3ccc(NC(=O)c4cc(N5CC6(COC6)C5)ccn4)nc3)ccnc2cc1OCCCN1CCOCC1` [Compound 19, N-(5-((6-methoxy-7-(3-morpholinopropoxy)quinolin-4-yl)oxy)pyridin-2-yl)-4-(2-oxa-6-azaspiro[3.3]heptan-6-yl)picolinamide], the EC50 at MerTK came to 505 nM; at Axl, 568 nM.

`COc1cc2c(Oc3ccc(NC(=O)c4nc(-c5ccccc5)c5c(n4)C4CCN5CC4)nc3)ccnc2cc1OCc1ccccc1` [Compound 37, N-(5-((7-(benzyloxy)-6-methoxyquinolin-4-yl)oxy)pyridin-2-yl)-4-phenyl-7,8-dihydro-6H-5,8-ethanopyrido[3,2-d]pyrimidine-2-carboxamide]: the values for the EC50 on MerTK and at Axl were 63.6 nM and 38.4 nM, respectively.

On to `COc1cc2c(Oc3ccc(NC(=O)c4cc(N5CC(F)(F)C5)ccn4)nc3)ccnc2cc1OCCCN1CCOCC1` [Compound 20, 4-(3,3-difluoroazetidin-1-yl)-N-(5-((6-methoxy-7-(3-morpholinopropoxy)quinolin-4-yl)oxy)pyridin-2-yl)picolinamide], for which the concentration for a half-maximal effect (EC50) at MerTK turned out to be 209 nM; on Axl, 163 nM.

For `COc1ccnc(C(=O)Nc2ccc(Oc3ccnc4cc(OCCCN5CCOCC5)c(OC)cc34)cn2)c1` [Compound 33, 4-Methoxy-N-(5-((6-methoxy-7-(3-morpholinopropoxy)quinolin-4-yl)oxy)pyridin-2-yl)picolinamide], the EC50 at MerTK stood at 161 nM; at Axl it was 188 nM.

`CCOC1CCN(c2cccc(C(=O)Nc3ccc(Oc4ccnc5cc(OCCCN6CCOCC6)c(OC)cc45)cn3)n2)CC1` [Compound 29, 6-(4-ethoxypiperidin-1-yl)-N-(5-((6-methoxy-7-(3-morpholinopropoxy)quinolin-4-yl)oxy)pyridin-2-yl)picolinamide]: the values for the EC50 at MerTK and on Axl were 690 nM and 651 nM, respectively.

Consider `COc1cc2c(Oc3ccc(NC(=O)c4cccc(N5CCC(C)(C)CC5)n4)nc3)ccnc2cc1OCCCN1CCOCC1` [Compound 27, 6-(4,4-dimethylpiperidin-1-yl)-N-(5-((6-methoxy-7-(3-morpholinopropoxy)quinolin-4-yl)oxy)pyridin-2-yl)picolinamide], for which the EC50 on MerTK was 102 nM; at Axl it was 84.9 nM.

For `COc1cc2c(Oc3ccc(NC(=O)c4cc(N5CCC(O)CC5)ccn4)nc3)ccnc2cc1OCCCN1CCOCC1` [Compound 11, 4-(4-Hydroxypiperidin-1-yl)-N-(5-((6-methoxy-7-(3-morpholino-propoxy)quinolin-4-yl)oxy)pyridin-2-yl)picolinamide], the concentration giving a half-maximal response (EC50) at MerTK was 86 nM; on Axl it was 197 nM.

For `COc1cc2c(Oc3ccc(NC(=O)c4cc(N5CCOCC5)ccn4)nc3)ccnc2cc1OCCCN1CCOCC1` [Compound 14, N-(5-((6-methoxy-7-(3-morpholinopropoxy)quinolin-4-yl)oxy)pyridin-2-yl)-4-morpholinopicolinamide], the EC50 at MerTK came out at 430 nM; at Axl, 805 nM.

Take `COc1cc2c(Oc3ccc(NC(=O)c4cc(-c5ccccc5)ccn4)nc3)ccnc2cc1OCCCN1CCOCC1` [Compound 3, N-(5-((6-Methoxy-7-(3-morpholinopropoxy)quinolin-4-yl)oxy)pyridin-2-yl)-4-phenylpicolinamide]: the EC50 at MerTK worked out at 98.7 nM; on Axl, 162 nM.

For `COc1cc2c(Oc3ccc(NC(=O)c4cc(N5CCN(C)CC5)ccn4)nc3)ccnc2cc1OCCCN1CCOCC1` [Compound 1, N-(5-((6-Methoxy-7-(3-morpholinopropoxy)quinolin-4-yl)oxy)pyridin-2-yl)-4-(4-methylpiperazin-1-yl)picolinamide], the EC50 amounted to 421 nM on MerTK and 403 nM at Axl.

`COc1cc2c(Oc3ccc(NC(=O)c4csc(-c5ccc(F)cc5)n4)nc3)ccnc2cc1OCCCN1CCOCC1` [Compound 43, 2-(4-fluorophenyl)-N-(5-((6-methoxy-7-(3-morpholinopropoxy)quinolin-4-yl)oxy)pyridin-2-yl)thiazole-4-carboxamide]: the EC50 came to 44.9 nM on MerTK and 55.2 nM on Axl.

The term EC50 denotes the concentration needed to bring the measured effect to its halfway point. The low end stands for higher potency in that assay, the high end for lower potency in that assay.

For the origin of these results see US10851093B2, “Tyrosine kinase inhibitors” (Rigel Pharmaceuticals, Inc., priority 2018, dated 2020).
